Reference: patent US20210244028A1, “TREATMENT FOR REMOVING ECTOPARASITES FROM FISH” (priority 2018, published 2021)
Several values for one entry are separate records, joined by “and”; a condition that tells them apart may be missing. Identical values can stand only once.

Columns and labels:
[1] = test system: azamethiphos- and deltamethrin-resistant sea lice; experiment: In vitro bath exposure of isolated sea lice (Example 6); conditions: registered approx. 20 h after end of exposure
Description: A trial was performed to ensure there was no cross-resistance between azamethiphos- and deltamethrin-resistant sea lice and neonicotinoids. Both pre-adult and adult stages (mobile stages) of both sexes were used, and they were equally distributed among groups. The sea lice were exposed to imidacloprid for 60 minutes, azamethiphos for 60 minutes and deltamethrin for 30 minutes in one litre baths at a range of concentrations (Tables 6, 7 and 8). The sea lice were transferred to clean aerated seawater after treatment. The temperature of the seawater during the experiment was 12° C., but during exposure the temperature raised to approx. 14° C. in regimes exposed for 60 min. (imidacloprid and azamethiphos) and to 13° C. for the regime exposed in 30 minutes (deltamethrin).
The numbers of live and immobilised (including killed) lice in each regime were registered approximately 20 h after end of exposure. Each louse was individually investigated.

[2] = test system: Salmon lice; experiment: Bath treatment of lice-infected Atlantic salmon, percent lice removed (Example 7); assay type: in vivo; conditions: 30 minutes, duplicate, 3 fish per test
Description: To determine the concentration- and time-dependence of imidacloprid treatment in vivo, Atlantic salmon (average of 320.9 g) were challenged with imidacloprid in seawater ([…] salinity) at 12° C. The water level in the tank was lowered and aeration was employed during administration of the active. The salmon louse copepodid culture was counted and adjusted to obtain a target level of around 40 copepodids per fish in the challenge tank at each challenge time point.
Salmon lice on the fish were counted using standard methods. Only lice on the fish's outer surface, not including gills and oral/buccal cavities, were investigated.
Numbers of dissociated lice in tank water or attached to the tank walls were recorded. Lice in the tank water were collected and assessed for ability to attach by suction to a smooth plastic surface immediately after treatment and again after 30-60 minutes (to assess possible revival). […]
To terminate the treatment, the inner compartment with treated fish was lifted to the surface and drained, then fish were transferred directly and without water to a second basin with a lethal overdose of anaesthetic and left until dead. All lice remaining on these fish and lice that fell off in the anaesthetic bath were recorded. […]

CC1(C)[C@H](C(=O)O[C@H](C#N)c2cccc(Oc3ccccc3)c2)[C@@H]1C=C(Br)Br [deltamethrin]
% effect ([1]; 5 ppm, 30 minutes exposure): 0% | Immobilised ([1]; 5 ppm, 30 minutes exposure): 0 | Live ([1]; 5 ppm, 30 minutes exposure): 10 | Live ([1]; 10 ppm, 30 minutes exposure): 9 and 10 | % effect ([1]; 15 ppm, 30 minutes exposure): 20% and 10% | Immobilised ([1]; 15 ppm, 30 minutes exposure): 2 and 1 | Live ([1]; 15 ppm, 30 minutes exposure): 8 and 9 | % effect ([1]; 20 ppm, 30 minutes exposure): 20% and 10% | Immobilised ([1]; 20 ppm, 30 minutes exposure): 2 and 1 | Live ([1]; 20 ppm, 30 minutes exposure): 8 and 9 | Immobilised ([1]; 30 ppm, 30 minutes exposure): 1 and 2 | Live ([1]; 30 ppm, 30 minutes exposure): 10 and 8 | % Removal ([2]; 0.2 μl/l): 0^37%

COP(=O)(OC)SCn1c(=O)oc2cc(Cl)cnc21 [azamethiphos]
% effect ([1]; 5 ppm, 60 minutes exposure): 0% | Immobilised ([1]; 5 ppm, 60 minutes exposure): 0 | Live ([1]; 5 ppm, 60 minutes exposure): 10 | % effect ([1]; 10 ppm, 60 minutes exposure): 10% | Immobilised ([1]; 10 ppm, 60 minutes exposure): 1 | Live ([1]; 10 ppm, 60 minutes exposure): 9 | % effect ([1]; 15 ppm, 60 minutes exposure): 0% | Immobilised ([1]; 15 ppm, 60 minutes exposure): 0 | Live ([1]; 15 ppm, 60 minutes exposure): 10 | % effect ([1]; 20 ppm, 60 minutes exposure): 10% and 20% | Immobilised ([1]; 20 ppm, 60 minutes exposure): 1 and 2 | Live ([1]; 20 ppm, 60 minutes exposure): 9 and 8 | Live ([1]; 30 ppm, 60 minutes exposure): 9 and 6 | % Removal ([2]; 0.1 mg/l): 3.0^33% and 3.8^52%
